From patent US20220105218A1, “METHODS AND SYSTEMS FOR REDUCING A PATHOGEN POPULATION” (The Board of Trustees of the Leland Standford Junior …, priority 2019, published 2022)

Tested on: E. coli
Experiment: Disinfection of E. coli-infected surfaces, SYTO9/PI confocal fluorescence microscopy
Type: cell-based
Conditions: on stainless steel, plastic and spinach leaf, 20 min treatment
Experimental: The efficacy of AquaROS as a disinfectant for reducing pathogen concentration was tested with three different surfaces infected with E. coli: stainless steel, plastic, and spinach leaf (cut from a single leaf as 1-cm×1-cm squares and washed 3× with distilled water and dried ambiently prior to E. coli deposition). For these experiments, E. coli was cultured in LB broth at 37° C. for approximately 16 hours. Using sterilized LB broth, the E. coli suspension was diluted to a concentration of 4.5×10^8 cells/mL, using a UV-vis spectrophotometer to monitor absorption at 600 nm. Infection of each surface was achieved by deposition of 10 μL of 4.5×10^8 cell/mL E. coli suspension followed by drying in a desiccator for approximately 10 min. AquaROS was applied by spraying pure water at 120 psi and at a height of 1.5 cm from the E. coli surface with a 10 μl/min flow rate for 20 min (FIG. 6). Control samples were treated by depositing 100 μL of 3% H2O2 and allowing it to react for 20 min at room temperature. Following treatment with AquaROS spray and 3% H2O2, 1 mL PBS 1× (pH 7.4) was added to the glass vial containing the treated material, swirled, then pipetted into a 1-mL Eppendorf tube. […]
FIG. 7 is a plot of E. coli death by AquaROS spray on the different surfaces compared to 3% H2O2. Cell death data were acquired by confocal fluorescence microscopy of each sample placed on a glass slide. […]

OO [3% H2O2, hydrogen peroxide]
E. coli death: approximately 60%
